# Literature values, collected in patent publication US20220064092A1, “METHYLATION PROCESS” (priority 2019, published 2022).
# Conditions: qualitative statement
structure (smiles),measurement,value
"Oc1ccc(/C=C/c2cc(O)cc(O)c2)cc1 [resveratrol, 3,5,4′-trihydroxy-trans-stilbene]",half-life,very limited half-life
